Laboratory results taken from patent publication US12077503B2, “Substituted cyclic amides and their use as herbicides” (FMC CORPORATION, priority 2015, dated 2024).

Columns and labels:
Format in all cases: in vivo
[1] = test system: barnyardgrass (Echinochloa crus-galli); experiment: Test G Pre-Emergence Protocol; settings: Echinochloa crus-galli, pre-emergence, 312 h, evaluated after 13 days; for pest or weed control at 15.625 g/ha: 15.625 g ai/ha, read-out: Barnyard grass damage rating (100=total damage to plant; 0=no damage to plant); for pest or weed control at 62.5 g/ha: 62.5 g ai/ha, 100=total damage to plant, 0=no damage to plant, read-out: plant damage rating, Barnyardgrass; for pest or weed control at 250 g/ha: 250 g ai/ha, read-out: Barnyardgrass damage rating (100=total damage to plant; 0=no damage to plant)
In short: (§1)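 Pre-emergence spray, 15.625/62.5/250 g/ha, vehicle acetone:water 50:50 + 0.5% Tween 20, applied 1 d after sowing. Glasshouse 24/16° C, 14 h light, 65% RH, watered twice daily. Visual damage rating at 13 d, 0–100 scale.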

corn (Zea mays) [2] = experiment: Test G Pre-Emergence Protocol; settings: Zea mays, pre-emergence, 312 h, evaluated after 13 days; for plant injury at 15.625 g/ha: 15.625 g ai/ha; for plant injury at 15.625 g/ha / plant injury at 250 g/ha: read-out: Corn damage rating (100=total damage to plant; 0=no damage to plant); for plant injury at 62.5 g/ha: 62.5 g ai/ha, 100=total damage to plant, 0=no damage to plant, read-out: plant damage rating, Corn; for plant injury at 250 g/ha: 250 g ai/ha
In short: as §1

[3] = test system: giant foxtail (Setaria faberi); experiment: Test G Pre-Emergence Protocol; settings: Setaria faberi, pre-emergence, 312 h, evaluated after 13 days; for pest or weed control at 15.625 g/ha: 15.625 g ai/ha; for pest or weed control at 15.625 g/ha / pest or weed control at 250 g/ha: read-out: Foxtail, Giant damage rating (100=total damage to plant; 0=no damage to plant); for pest or weed control at 62.5 g/ha: 62.5 g ai/ha, 100=total damage to plant, 0=no damage to plant, read-out: plant damage rating, Foxtail, Giant; for pest or weed control at 250 g/ha: 250 g ai/ha
In short: as §1

[4] = test system: ivy-leaved morning glory (Ipomoea hederacea); experiment: Test G Pre-Emergence Protocol; settings: Ipomoea, pre-emergence, 312 h, evaluated after 13 days; for pest or weed control at 15.625 g/ha: 15.625 g ai/ha, read-out: Morning-glory, Ivy-leaved damage rating (100=total damage to plant; 0=no damage to plant); for pest or weed control at 62.5 g/ha: 62.5 g ai/ha, 100=total damage to plant, 0=no damage to plant, read-out: plant damage rating, Morningglory, Ivy-leaved; for pest or weed control at 250 g/ha: 250 g ai/ha, read-out: Morningglory, Ivy-leaved damage rating (100=total damage to plant; 0=no damage to plant)
In short: as §1

[5] = test system: redroot pigweed (Amaranthus retroflexus); experiment: Test G Pre-Emergence Protocol; settings: Amaranthus retroflexus, pre-emergence, 312 h, evaluated after 13 days; for pest or weed control at 15.625 g/ha: 15.625 g ai/ha; for pest or weed control at 15.625 g/ha / pest or weed control at 250 g/ha: read-out: Pigweed, Redroot damage rating (100=total damage to plant; 0=no damage to plant); for pest or weed control at 62.5 g/ha: 62.5 g ai/ha, 100=total damage to plant, 0=no damage to plant, read-out: plant damage rating, Pigweed, Redroot; for pest or weed control at 250 g/ha: 250 g ai/ha
In short: as §1

[6] = test system: velvetleaf (Abutilon theophrasti); experiment: Test G Pre-Emergence Protocol; settings: Abutilon theophrasti, pre-emergence, 312 h, evaluated after 13 days; for pest or weed control at 15.625 g/ha: 15.625 g ai/ha; for pest or weed control at 15.625 g/ha / pest or weed control at 250 g/ha: read-out: Velvetleaf damage rating (100=total damage to plant; 0=no damage to plant); for pest or weed control at 62.5 g/ha: 62.5 g ai/ha, 100=total damage to plant, 0=no damage to plant, read-out: plant damage rating, Velvetleaf; for pest or weed control at 250 g/ha: 250 g ai/ha
In short: as §1

[7] = test system: barnyardgrass (Echinochloa crus-galli); experiment: Test G Post-Emergence Protocol; settings: Echinochloa crus-galli, post-emergence, 312 h; for pest or weed control at 15.625 g/ha: 15.625 g ai/ha, evaluated after 13 days (100=total damage to plant; 0=no damage to plant), read-out: Barnyardgrass damage rating; for pest or weed control at 62.5 g/ha: 62.5 g ai/ha, read-out: Barnyardgrass damage rating (100=total damage to plant; 0=no damage to plant); for pest or weed control at 62.5 g/ha / pest or weed control at 250 g/ha: evaluated after 13 days; for pest or weed control at 250 g/ha: 250 g ai/ha, read-out: damage to plant, Barnyardgrass (100=total damage to plant; 0=no damage to plant)
In short: (§2)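 Foliar application was made 8 days after sowing, using an aqueous spray of the active in acetone/water (50:50) with 0.5% Tween 20, at doses of 15.625, 62.5 or 250 g/ha. Injury was assessed 13 days later, where 100 meant the plant was fully damaged.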

corn (Zea mays) [8] = experiment: Test G Post-Emergence Protocol; settings: Zea mays, post-emergence, 312 h; for plant injury at 15.625 g/ha: 15.625 g ai/ha, evaluated after 13 days (100=total damage to plant; 0=no damage to plant), read-out: Corn damage rating; for plant injury at 62.5 g/ha: 62.5 g ai/ha, read-out: Corn damage rating (100=total damage to plant; 0=no damage to plant); for plant injury at 62.5 g/ha / plant injury at 250 g/ha: evaluated after 13 days; for plant injury at 250 g/ha: 250 g ai/ha, read-out: damage to plant, Corn (100=total damage to plant; 0=no damage to plant)
In short: as §2

[9] = test system: giant foxtail (Setaria faberi); experiment: Test G Post-Emergence Protocol; settings: Setaria faberi, post-emergence, 312 h; for pest or weed control at 15.625 g/ha: 15.625 g ai/ha, evaluated after 13 days (100=total damage to plant; 0=no damage to plant), read-out: Foxtail, Giant damage rating; for pest or weed control at 62.5 g/ha: 62.5 g ai/ha, read-out: Foxtail, Giant damage rating (100=total damage to plant; 0=no damage to plant); for pest or weed control at 62.5 g/ha / pest or weed control at 250 g/ha: evaluated after 13 days; for pest or weed control at 250 g/ha: 250 g ai/ha, read-out: damage to plant, Foxtail, Giant (100=total damage to plant; 0=no damage to plant)
In short: as §2

[10] = test system: ivy-leaved morning glory (Ipomoea hederacea); experiment: Test G Post-Emergence Protocol; settings: Ipomoea, post-emergence, 312 h; for pest or weed control at 15.625 g/ha: 15.625 g ai/ha, evaluated after 13 days (100=total damage to plant; 0=no damage to plant), read-out: Morningglory, Ivy-leaved damage rating; for pest or weed control at 62.5 g/ha: 62.5 g ai/ha, read-out: Morningglory, Ivy-leaved damage rating (100=total damage to plant; 0=no damage to plant); for pest or weed control at 62.5 g/ha / pest or weed control at 250 g/ha: evaluated after 13 days; for pest or weed control at 250 g/ha: 250 g ai/ha, read-out: damage to plant, Morningglory, Ivy-leaved (100=total damage to plant; 0=no damage to plant)
In short: as §2

[11] = test system: redroot pigweed (Amaranthus retroflexus); experiment: Test G Post-Emergence Protocol; settings: Amaranthus retroflexus, post-emergence, 312 h; for pest or weed control at 15.625 g/ha: 15.625 g ai/ha, evaluated after 13 days (100=total damage to plant; 0=no damage to plant), read-out: Pigweed, Redroot damage rating; for pest or weed control at 62.5 g/ha: 62.5 g ai/ha, read-out: Pigweed, Redroot damage rating (100=total damage to plant; 0=no damage to plant); for pest or weed control at 62.5 g/ha / pest or weed control at 250 g/ha: evaluated after 13 days; for pest or weed control at 250 g/ha: 250 g ai/ha, read-out: damage to plant, Pigweed, Redroot (100=total damage to plant; 0=no damage to plant)
In short: as §2

[12] = test system: velvetleaf (Abutilon theophrasti); experiment: Test G Post-Emergence Protocol; settings: Abutilon theophrasti, post-emergence, 312 h; for pest or weed control at 15.625 g/ha: 15.625 g ai/ha, evaluated after 13 days (100=total damage to plant; 0=no damage to plant), read-out: Velvetleaf damage rating; for pest or weed control at 62.5 g/ha: 62.5 g ai/ha, read-out: Velvetleaf damage rating (100=total damage to plant; 0=no damage to plant); for pest or weed control at 62.5 g/ha / pest or weed control at 250 g/ha: evaluated after 13 days; for pest or weed control at 250 g/ha: 250 g ai/ha, read-out: damage to plant, Velvetleaf (100=total damage to plant; 0=no damage to plant)
In short: as §2

| Compound | pest or weed control at 15.625 g/ha [1] | pest or weed control at 62.5 g/ha [1] | pest or weed control at 250 g/ha [1] | plant injury at 15.625 g/ha (corn (Zea mays) [2]) | plant injury at 62.5 g/ha (corn (Zea mays) [2]) | plant injury at 250 g/ha (corn (Zea mays) [2]) | pest or weed control at 15.625 g/ha [3] | pest or weed control at 62.5 g/ha [3] | pest or weed control at 250 g/ha [3] | pest or weed control at 15.625 g/ha [4] | pest or weed control at 62.5 g/ha [4] | pest or weed control at 250 g/ha [4] | pest or weed control at 15.625 g/ha [5] | pest or weed control at 62.5 g/ha [5] | pest or weed control at 250 g/ha [5] | pest or weed control at 15.625 g/ha [6] | pest or weed control at 62.5 g/ha [6] | pest or weed control at 250 g/ha [6] | pest or weed control at 15.625 g/ha [7] | pest or weed control at 62.5 g/ha [7] | other results |
| --- | --- | --- | --- | --- | --- | --- | --- | --- | --- | --- | --- | --- | --- | --- | --- | --- | --- | --- | --- | --- | --- |
| CN1C[C@@H](c2ccc(C(F)(F)F)cc2)[C@H](C(=O)Nc2ncc(Cl)s2)C1=O (racemic) [Compound 1569] | 0% | 0% | 0% | 0% | 0% | 0% | 0% | 0% | 0% | 0% | 0% | 0% | 0% | 0% | 0% | 0% | 0% | 0% | 0% | 10% | pest or weed control at 250 g/ha [7]: 20%; plant injury at 15.625 g/ha (corn (Zea mays) [8]): 0%; plant injury at 62.5 g/ha (corn (Zea mays) [8]): 0%; plant injury at 250 g/ha (corn (Zea mays) [8]): 0%; pest or weed control at 15.625 g/ha [9]: 0%; pest or weed control at 62.5 g/ha [9]: 0%; pest or weed control at 250 g/ha [9]: 0%; pest or weed control at 15.625 g/ha [10]: 0%; pest or weed control at 62.5 g/ha [10]: 0%; pest or weed control at 250 g/ha [10]: 0%; pest or weed control at 15.625 g/ha [11]: 0%; pest or weed control at 62.5 g/ha [11]: 0%; pest or weed control at 250 g/ha [11]: 0%; pest or weed control at 15.625 g/ha [12]: 0%; pest or weed control at 62.5 g/ha [12]: 0%; pest or weed control at 250 g/ha [12]: 0% |
| CN1C[C@@H](c2ccc(C(F)(F)F)cc2)[C@H](C(=O)Nc2ccnc(Cl)c2)C1=O (racemic) [Compound 1571] | 0% | 0% | 0% | 0% | 0% | 0% | 0% | 0% | 20% | 0% | 0% | 0% | 0% | 0% | 0% | 0% | 0% | 0% | 0% | 0% | pest or weed control at 250 g/ha [7]: 0%; plant injury at 15.625 g/ha (corn (Zea mays) [8]): 0%; plant injury at 62.5 g/ha (corn (Zea mays) [8]): 0%; plant injury at 250 g/ha (corn (Zea mays) [8]): 0%; pest or weed control at 15.625 g/ha [9]: 0%; pest or weed control at 62.5 g/ha [9]: 0%; pest or weed control at 250 g/ha [9]: 0%; pest or weed control at 15.625 g/ha [10]: 0%; pest or weed control at 62.5 g/ha [10]: 0%; pest or weed control at 250 g/ha [10]: 0%; pest or weed control at 15.625 g/ha [11]: 0%; pest or weed control at 62.5 g/ha [11]: 0%; pest or weed control at 250 g/ha [11]: 0%; pest or weed control at 15.625 g/ha [12]: 0%; pest or weed control at 62.5 g/ha [12]: 0%; pest or weed control at 250 g/ha [12]: 0% |
